What all share (format): in vivo
Experiment [1] has as its system Dicots. In words: Herbicidal activity, postemergence, dicot weeds (Table II). The note with it: post-emergence, 336 h, about 2 weeks, read-out: % control (percent of plants killed); for pest or weed control at 2241.7 g/ha: 2 lb./A.; for pest or weed control at 4483.4 g/ha: 4 lb./A. How it is done: (§1) Using the procedure described below, diphenyl ethers were evaluated for control of the following weeds: […]
(§2) bindweed (Convolvulus arvensis) curly dock (Remex crispus) velvetleaf (Abutilon theophrasti) wild mustard (Brassica haber)
(§3) At 2 and 4 pounds per acre: […]
(§4) cocklebur (Xanthium pensylvanicum)
(§5) **coffeeweed (Sesbania macrocarpa)
(§6) *curly dock (Rumex crispus)
(§7) *lambsquarters (Chenopodium album) morningglory (Ipomoea purpurea)
(§8) *pigweed (Amaranthus retroflexus)
(§9) **ragweed (Ambrosia artemisiifolia)
(§10) *smartweed (Polygonum pensylvanicum)
(§11) **tomato (Lycopersicon esculentum)
(§12) *wild carrot (Daucus carota)
(§13) *wild mustard (Brassica haber)
(§14) The following test procedure is employed. Seeds of selected crops and weeds are planted in soil in flats. For preemergence tests, the flats are treated with the test compound immediately after the planting. For postemergence tests, the seeds are allowed to germinate, and after 2 weeks the flats are treated with the test compound. The compound to be evaluated is dissolved in acetone, diluted with water, and sprayed over the flats using a carrier volume equivalent to 50 gallons per acre at the rate of application (pounds per acre, lb/A.) specified in the tables. About 2 weeks after the application of the test compound, the state of growth of the plants is observed and the phytotoxic effect of the compound is evaluated. Table II gives the average percent control achieved by the test compounds in terms of the percent of the plants which are killed by the compounds.

Experiment [2] concerns Monocots. Description: Herbicidal activity, postemergence, monocot weeds (Table II). The note with it: post-emergence, 336 h, about 2 weeks, read-out: % control (percent of plants killed); for pest or weed control at 2241.7 g/ha: 2 lb./A.; for pest or weed control at 4483.4 g/ha: 4 lb./A. How it is done: as §1
(§15) barnyardgrass (Echinochloa crusgalli) crabgrass (Digitaria spp.) nutsedge (Cyperus esculentus)
(§16) At 2 and 4 pounds per acre:
(§17) **Bermudagrass (Cynodon dactylon)
(§18) *downy brome (Bromus tectorum) foxtail (Setaria faberii)
(§19) Johnsongrass (Sorghum halepense) […]
(§20) quackgrass (Agropyron repens)
(§21) *ryegrass (Lolium perenne)
(§22) *yellow millet (Panicum miliaceum)
as §14

Experiment [3] has as its system Monocots. Description: Herbicidal activity, preemergence, monocot weeds (Table II). The settings on record: pre-emergence, 336 h, about 2 weeks, read-out: % control (percent of plants killed); for pest or weed control at 2241.7 g/ha: 2 lb./A.; for pest or weed control at 4483.4 g/ha: 4 lb./A. The protocol:
as §1, §15, §16, §17, §18, §19, §20, §21, §22, §14

Experiment [4] concerns Dicots. Description: Herbicidal activity, preemergence, dicot weeds (Table II). The settings on record: pre-emergence, 336 h, about 2 weeks, read-out: % control (percent of plants killed); for pest or weed control at 2241.7 g/ha: 2 lb./A.; for pest or weed control at 4483.4 g/ha: 4 lb./A. How it is done:
as §1, §2, §3, §4, §5, §6, §7, §8, §9, §10, §11, §12, §13, §14

Turning to `CN(C)CCOc1cc(Oc2ccc(C(F)(F)F)cc2Cl)ccc1[N+](=O)[O-]` [Example 17, 2-chloro-α,α,α-trifluoro-p-tolyl-3-(2-dimethylaminoethoxy)-4-nitrophenyl ether], the pest or weed control at 2241.7 g/ha in experiment [1] stood at 98%; in experiment [2], 39%; in experiment [3] it was 20%; in experiment [4], 31%. Moreover, the pest or weed control at 4483.4 g/ha in experiment [1] came out at 89%; in experiment [2], 45%; in experiment [3] it was 51%; in experiment [4] it was 84%.

As for `CC(=O)CCOc1cc(Oc2ccc(C(F)(F)F)cc2Cl)ccc1[N+](=O)[O-]` [Example 31], the pest or weed control at 2241.7 g/ha in experiment [1] amounted to 100%; in experiment [2], 68%; in experiment [3] it was 68%; in experiment [4], 69%. Also, the pest or weed control at 4483.4 g/ha was 100% in experiment [1], 61% in experiment [2], 74% in experiment [3] and 99% in experiment [4].

Turning to `CCN(C(=O)NC)c1cc(Oc2ccc(C(F)(F)F)cc2Cl)ccc1[N+](=O)[O-]` [Example 55, 2-Chloro-α,α,α-trifluoro-p-tolyl-3-(3-methyl-1-ethylureido)-4-nitrophenyl ether], the pest or weed control at 2241.7 g/ha in experiment [1] was 96%; in experiment [2], 31%. Further, the pest or weed control at 4483.4 g/ha in experiment [1] stood at 95%; in experiment [2] it was 69%; in experiment [3] it was 91%; in experiment [4], 73%.

Consider `CCOCCOc1cc(Oc2ccc(C(F)(F)F)cc2Cl)ccc1[N+](=O)[O-]` [Example 16], for which the pest or weed control at 2241.7 g/ha was 94% in experiment [1], 82% in experiment [2], 67% in experiment [3] and 75% in experiment [4]. Moreover, the pest or weed control at 4483.4 g/ha in experiment [1] turned out to be 96%; in experiment [2], 77%; in experiment [3], 86%; in experiment [4], 94%.

Regarding `CN(CCO)c1cc(Oc2ccc(C(F)(F)F)cc2Cl)ccc1[N+](=O)[O-]` [Example 43], the pest or weed control at 2241.7 g/ha was 80% in experiment [1], 61% in experiment [2], 99% in experiment [3] and 100% in experiment [4]. The pest or weed control at 4483.4 g/ha in experiment [1] came to 47%; in experiment [2], 2%; in experiment [3], 0%; in experiment [4], 48%.

Regarding `O=C(CCl)Nc1cc(Oc2ccc(C(F)(F)F)cc2Cl)ccc1[N+](=O)[O-]` [Example 35, 2-chloro-α,α,α-trifluoro-p-tolyl-3-chloroacetamido-4-nitrophenyl ether], the pest or weed control at 2241.7 g/ha in experiment [1] was determined as 80%; in experiment [2], 63%; in experiment [3], 60%; in experiment [4] it was 72%. Also, the pest or weed control at 4483.4 g/ha worked out at 98% in experiment [1], 45% in experiment [2], 40% in experiment [3] and 40% in experiment [4].

As for `CC(Oc1cc(Oc2ccc(C(F)(F)F)cc2Cl)ccc1[N+](=O)[O-])C(N)=O` (stereo not drawn) [Example 51, 2-chloro-α,α,α-trifluoro-p-tolyl-3-(1-carbamoylethoxy)-4-nitrophenyl ether], the pest or weed control at 2241.7 g/ha in experiment [1] was 98%; in experiment [2], 86%; in experiment [3] it was 96%; in experiment [4] it was 100%. For the same molecule, the pest or weed control at 4483.4 g/ha in experiment [1] was found to be 100%; in experiment [2], 75%; in experiment [3] it was 79%; in experiment [4] it was 100%.

Take `CC(=O)C(C)Oc1cc(Oc2ccc(C(F)(F)F)cc2Cl)ccc1[N+](=O)[O-]` (stereo not drawn) [Example 32]: the pest or weed control at 2241.7 g/ha in experiment [1] came out at 100%; in experiment [2], 100%; in experiment [3] it was 81%; in experiment [4], 81%. Besides, the pest or weed control at 4483.4 g/ha in experiment [1] was determined as 100%; in experiment [2], 86%; in experiment [3] it was 86%; in experiment [4], 100%.

With `C=CCOc1cc(Oc2ccc(C(F)(F)F)cc2Cl)ccc1[N+](=O)[O-]` [Example 12], the pest or weed control at 2241.7 g/ha in experiment [1] came out at 100%; in experiment [2], 99%; in experiment [3], 72%; in experiment [4] it was 93%. In addition, the pest or weed control at 4483.4 g/ha came out at 100% in experiment [1], 77% in experiment [2], 86% in experiment [3] and 96% in experiment [4].

Regarding `CNC(=O)Nc1cc(Oc2ccc(C(F)(F)F)cc2Cl)ccc1[N+](=O)[O-]` [Example 44], the pest or weed control at 2241.7 g/ha was found to be 10% in experiment [1], 7% in experiment [2], 0% in experiment [3] and 17% in experiment [4]. The pest or weed control at 4483.4 g/ha in experiment [1] was 98%; in experiment [2], 60%; in experiment [3], 66%; in experiment [4], 96%.

With `O=[N+]([O-])c1ccc(Oc2ccc(C(F)(F)F)cc2Cl)cc1N1CCOCC1` [Example 28, 2-chloro-α,α,α-trifluoro-p-tolyl-3-morpholino-4-nitrophenyl ether], the pest or weed control at 2241.7 g/ha in experiment [1] stood at 100%; in experiment [2] it was 73%; in experiment [3], 79%; in experiment [4], 79%. The pest or weed control at 4483.4 g/ha in experiment [1] amounted to 99%; in experiment [2] it was 73%; in experiment [3] it was 74%; in experiment [4], 95%.

Consider `CNC(=O)Oc1cc(Oc2ccc(C(F)(F)F)cc2Cl)ccc1[N+](=O)[O-]` [Example 33], for which the pest or weed control at 2241.7 g/ha worked out at 100% in experiment [1], 65% in experiment [2], 79% in experiment [3] and 74% in experiment [4]. Moreover, the pest or weed control at 4483.4 g/ha in experiment [1] came to 98%; in experiment [2] it was 32%; in experiment [3], 53%; in experiment [4], 99%.

As to `CCCN(CCC)c1cc(Oc2ccc(C(F)(F)F)cc2Cl)ccc1[N+](=O)[O-]` [Example 41], the pest or weed control at 2241.7 g/ha is 94% in experiment [1], 56% in experiment [2], 84% in experiment [3] and 62% in experiment [4]. Besides, the pest or weed control at 4483.4 g/ha in experiment [1] amounted to 95%; in experiment [2] it was 71%; in experiment [3] it was 60%; in experiment [4], 96%.

On to `O=[N+]([O-])c1ccc(Oc2ccc(C(F)(F)F)cc2Cl)cc1OCCO` [Example 15, 2-chloro-α,α,α-trifluoro-p-tolyl-3-(2-hydroxyethoxy)-4-nitrophenyl ether], for which the pest or weed control at 2241.7 g/ha was determined as 94% in experiment [1], 76% in experiment [2], 68% in experiment [3] and 90% in experiment [4]. In addition, the pest or weed control at 4483.4 g/ha in experiment [1] was determined as 99%; in experiment [2], 79%; in experiment [3], 99%; in experiment [4], 100%.

On to `CCSC(=O)N(C(=O)SCC)c1cc(Oc2ccc(C(F)(F)F)cc2Cl)ccc1[N+](=O)[O-]` [Example 46], for which the pest or weed control at 2241.7 g/ha in experiment [1] was found to be 4%; in experiment [2] it was 0%; in experiment [3], 34%; in experiment [4] it was 87%. The pest or weed control at 4483.4 g/ha in experiment [1] was 30%; in experiment [2], 0%; in experiment [3], 0%; in experiment [4], 20%.

In the case of `CCOC(=O)COc1cc(Oc2ccc(C(F)(F)F)cc2Cl)ccc1[N+](=O)[O-]` [Example 24], the pest or weed control at 2241.7 g/ha in experiment [1] was 100%; in experiment [2], 84%; in experiment [3] it was 62%; in experiment [4], 97%. The pest or weed control at 4483.4 g/ha in experiment [1] is 99%; in experiment [2] it was 86%; in experiment [3] it was 91%; in experiment [4], 68%.

The values above are taken from patent publication USRE31731E, “Herbicidal 4-trifluoromethyl-4-nitrodiphenyl ethers” (priority 1978, dated 1984).
